We go through 62 compounds from US8604016B2, “Heterocyclic inhibitors of glutaminase” (Calithera Biosciences Inc., priority 2011, dated 2013).

A value given as a limit tells only on which side of the number the result lay.

The assay deals with recombinant form of Glutaminase 1 (GAC) (Homo sapiens, UniProt O94925). Briefly: Recombinant Enzyme Assay (GAC coupled to GDH, NADH absorbance, no preincubation). Particulars: no preincubation; read-out: GAC Delta N2 IC50 no preinc. It is filed as biochemical. The method, boiled down:
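GAC (4 nM) in Tris-HCl pH 8.0 with 150 mM K2HPO4, EDTA, BSA, DTT, plus 4 units/ml GDH and 4 mM ADP, without preincubation. Absorbance at 340 nm was read kinetically for 15 min at 20° C. Slopes (mAU/min) were compared with DMSO-only and control-compound wells on the same plate.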

For the compound `COCCC(=O)Nc1nnc(CCSCCc2nnc(NC(=O)CCOC)s2)s1` [Compound 101], the IC50 was 24 µM.
The figure for `CC1(C(=O)Nc2nnc(CCSCCc3nnc(NC(=O)C4(C)CCCO4)s3)s2)CCCO1` (centres unmarked) [Compound 119] is greater than 20 µM.
The figure for `Cc1cccc(CC(=O)Nc2nnc(CCSCCc3nnc(NC(=O)Cc4cccc(C)c4)s3)s2)c1` [Compound 247] is 0.19 µM.
Under `O=C(CN1CCOCC1)Nc1nnc(CCSCCc2nnc(NC(=O)CN3CCOCC3)s2)s1` [Compound 12] stands greater than 50 µM; under `O=C(Cc1ccccc1)Nc1nnc(CCSCc2nnc(NC(=O)C(O)c3cccc(Cl)c3)s2)s1` (centres unmarked) [Compound 376], 0.35 µM; under `COC(=O)C(C(=O)Nc1nnc(CCSCCc2nnc(NC(=O)C(C(=O)OC)c3ccccc3)s2)s1)c1ccccc1` (centres unmarked) [Compound 234], 2 µM.
`O=C(Cc1cc2ccccc2o1)Cc1nnc(CCSCCc2nnc(NC(=O)Cc3cc4ccccc4o3)s2)s1` [Compound 193]: the IC50 worked out at 3.4 µM.
Under `CC(=O)OCC(=O)Nc1nnc(CCSCCc2nnc(NC(=O)COC(C)=O)s2)s1` [Compound 5] stands greater than 50 µM; under `O=C(Nc1nnc(CCCCc2nnc(NC(=O)C3CC(O)c4ccccc43)s2)s1)C1CC(O)c2ccccc21` (centres unmarked) [Compound 94], 0.28 µM.
The figure for `CCCC(=O)OCN(C(=O)Cc1ccccc1)c1nnc(CCSCCc2nnc(N(COC(=O)CCC)C(=O)Cc3ccccc3)s2)s1` [Compound 8] is greater than 50 µM; for `CC(CCc1nnc(NC(=O)Cc2ccccc2)s1)Cc1nnc(NC(=O)Cc2ccccc2)s1` (centres unmarked) [Compound 44] it is 4.9 µM.
As for `CC(C)(C)C(=O)OCN(C(=O)Cc1ccccc1)c1nnc(CCSCCc2nnc(N(COC(=O)C(C)(C)C)C(=O)Cc3ccccc3)s2)s1` [Compound 16], the IC50 was greater than 50 µM.
The figure for `CC(C)(C)OC(=O)N1CCN(C(C(=O)Nc2nnc(CCCCc3nnc(NC(=O)C(c4ccccc4)N4CCN(C(=O)OC(C)(C)C)CC4)s3)s2)c2ccccc2)CC1` (centres unmarked) [Compound 63] is 25 µM; for `O=C(Cc1cccc(-n2cccc2)c1)Nc1nnc(CCCCc2nnc(NC(=O)Cc3cccc(-n4cccc4)c3)s2)s1` [Compound 330] it is greater than 20 µM; for `O=C(Nc1nnc(CCSCCc2nnc(NC(=O)c3coc4ccccc34)s2)s1)c1coc2ccccc12` [Compound 218] it is greater than 20 µM.
Take `O=C(Cc1ccccc1)Nc1nnc(CCSCc2nnc(NC(=O)Cc3cccc(Cl)c3)s2)s1` [Compound 372]: the IC50 is 0.16 µM.
The figure for `O=C(CCN1CCOCC1)OC(C(=O)Nc1nnc(CCCCc2nnc(NC(=O)C(OC(=O)CCN3CCOCC3)c3cccc(Cl)c3)s2)s1)c1cccc(Cl)c1` (centres unmarked) [Compound 332] is 3.3 µM; for `O=C(Cc1ccccc1)Nc1nnc(CCCCc2nnc(NC(=O)OCc3ccccc3)s2)s1` [Compound 374] it is 0.26 µM.
With `O=C(Nc1nnc(CCCCc2nnc(NC(=O)[C@@H](O)c3ccccc3Cl)s2)s1)[C@@H](O)c1ccccc1Cl` [Compound 210], the IC50 was 0.38 µM.
`O=C(C[C@@H](O)c1ccccc1)Nc1nnc(CCCCc2nnc(NC(=O)C[C@@H](O)c3ccccc3)s2)s1` [Compound 127]: the IC50 is 1.8 µM.
The figure for `CC(C)[C@H](NC(=O)OC(C)(C)C)C(=O)Nc1nnc(CCSCCc2nnc(NC(=O)Cc3ccccc3)s2)s1` [Compound 33] is 13 µM; for `O=C(Nc1nnc(CCSCCc2nnc(NC(=O)C3Cc4cc(Cl)ccc4O3)s2)s1)C1Cc2cc(Cl)ccc2O1` (centres unmarked) [Compound 189] it is 4.4 µM; for `O=C(Cc1cccs1)Nc1nnc(CCCCc2nnc(NC(=O)Cc3cccs3)s2)s1` [Compound 87] it is 0.18 µM.
Consider `CC(=O)OC(C(=O)Nc1nnc(CCCCc2nnc(NC(=O)C(OC(C)=O)c3ccccc3)s2)s1)c1ccccc1` (centres unmarked) [Compound 173], for which the IC50 was found to be 24 µM.
The figure for `COc1ccccc1CC(=O)Nc1nnc(CCSCCc2nnc(NC(=O)Cc3ccccc3OC)s2)s1` [Compound 219] is 0.17 µM; for `O=C(Nc1nnc(CCCCc2nnc(NC(=O)C(O)Cc3ccccc3)s2)s1)C(O)Cc1ccccc1` (centres unmarked) [Compound 69] it is 0.69 µM; for `CC(C)(C)OC(=O)Nc1cccc(CC(=O)Nc2nnc(CCSCCc3nnc(NC(=O)Cc4cccc(NC(=O)OC(C)(C)C)c4)s3)s2)c1` [Compound 98] it is greater than 20 µM.
Under `O=C(CCC(C(=O)O)c1ccccc1)Nc1nnc(CCSCCc2nnc(NC(=O)CCC(C(=O)O)c3ccccc3)s2)s1` (centres unmarked) [Compound 179] stands 3.1 µM; under `O=C(Nc1nnc(CCSCCc2nnc(NC(=O)C3C[C@@H]3c3ccccc3)s2)s1)C1C[C@@H]1c1ccccc1` (some centres unmarked) [Compound 91], greater than 20 µM.
Under `CC(C)(C)OC(=O)Nc1ccc(CC(=O)Nc2nnc(CCSCCc3nnc(NC(=O)Cc4ccc(NC(=O)OC(C)(C)C)cc4)s3)s2)cc1` [Compound 185] stands greater than 20 µM; under `CC(C)CC(=O)Nc1nnc(CCSCCc2nnc(NC(=O)CC(C)C)s2)s1` [Compound 4], 13 µM; under `COc1ccc(C(=O)Nc2nnc(CCSCCc3nnc(NC(=O)c4ccc(OC)cc4)s3)s2)cc1` [Compound 3], greater than 50 µM.
On to `O=C(Cc1ccccc1Cl)Nc1nnc(CCSCCc2nnc(NC(=O)Cc3ccccc3Cl)s2)s1` [Compound 255], for which the IC50 was 0.38 µM.
The figure for `N[C@@H](CO)C(=O)Nc1nnc(CCSCCc2nnc(NC(=O)[C@@H](N)CO)s2)s1` [Compound 137] is greater than 20 µM; for `O=C(Nc1nnc(CCSCCc2nnc(NC(=O)C3CCOC3)s2)s1)C1CCOC1` (centres unmarked) [Compound 95] it is 2.9 µM.
Under `CC(C)[C@H](NC(=O)OC(C)(C)C)C(=O)Nc1nnc(CCCCc2nnc(NC(=O)[C@@H](NC(=O)OC(C)(C)C)C(C)C)s2)s1` [Compound 42] stands greater than 50 µM.
As for `O=C(Cc1cccc(Br)c1)Nc1nnc(CCCCc2nnc(NC(=O)Cc3cccc(Br)c3)s2)s1` [Compound 284], the IC50 was greater than 20 µM.
The figure for `CC1(C)OC(=O)[C@@H](CC(=O)Nc2nnc(CCCCc3nnc(NC(=O)C[C@H]4OC(C)(C)OC4=O)s3)s2)O1` [Compound 103] is 19 µM; for `Nc1nnc(CCCCc2nnc(NC(=O)C(CO)c3ccccc3)s2)s1` (centres unmarked) [Compound 227] it is 9.9 µM.
The figure for `C=C(C(=O)Nc1nnc(CCCCc2nnc(NC(=O)C(COC(=O)CCN3CCOCC3)c3ccccc3)s2)s1)c1ccccc1` (centres unmarked) [Compound 281] is 0.74 µM; for `COc1cc(C(O)C(=O)Nc2nnc(CCCCc3nnc(NC(=O)C(O)c4ccc(O)c(OC)c4)s3)s2)ccc1O` (centres unmarked) [Compound 319] it is 0.64 µM.
Under `CCOc1ccccc1CC(=O)Nc1nnc(CCCCc2nnc(NC(=O)Cc3ccccc3OCC)s2)s1` [Compound 300] stands 0.16 µM; under `O=C(Nc1nnc(CCSCCc2nnc(NC(=O)C3COc4ccccc4O3)s2)s1)C1COc2ccccc2O1` (centres unmarked) [Compound 41], 7.9 µM.
Consider `Cn1cc(CC(=O)Nc2nnc(CCSCCc3nnc(NC(=O)Cc4cn(C)c5ccccc45)s3)s2)c2ccccc21` [Compound 200], for which the IC50 was 0.61 µM.
The figure for `O=C(Nc1nnc(CCSCCc2nnc(NC(=O)C3CCOCC3)s2)s1)C1CCOCC1` [Compound 108] is greater than 20 µM.
Take `O=C(Cc1cccc(Cn2cccn2)c1)Nc1nnc(CCCCc2nnc(NC(=O)Cc3cccc(Cn4cccn4)c3)s2)s1` [Compound 362]: the IC50 was determined as 0.35 µM.
The figure for `O=C(Nc1nnc(CCSCCc2nnc(NC(=O)C3Oc4ccccc4O3)s2)s1)C1Oc2ccccc2O1` [Compound 134] is 14 µM; for `COc1ccc2c(c1)CC(C(=O)Nc1nnc(CCSCCc3nnc(NC(=O)C4Cc5cc(OC)ccc5O4)s3)s1)O2` (centres unmarked) [Compound 117] it is 2.4 µM.
Under `COc1ccccc1CC(=O)Nc1nnc(CCCCc2nnc(NC(=O)Cc3ccccc3OC)s2)s1` [Compound 264] stands 0.072 µM; under `Cc1cc(C)n(CC(=O)Nc2nnc(CCSCCc3nnc(NC(=O)Cn4nc(C)cc4C)s3)s2)n1` [Compound 97], 0.56 µM; under `COc1ccccc1C(CO)C(=O)Nc1nnc(CCSCCc2nnc(NC(=O)C(CO)c3ccccc3OC)s2)s1` (centres unmarked) [Compound 245], 0.52 µM.
Under `C=CCC(C(=O)Nc1nnc(CCCCc2nnc(NC(=O)C(CC=C)c3ccccc3)s2)s1)c1ccccc1` (centres unmarked) [Compound 209] stands greater than 20 µM; under `O=C(Cc1ccc(Cl)s1)Nc1nnc(CCSCCc2nnc(NC(=O)Cc3ccc(Cl)s3)s2)s1` [Compound 206], greater than 20 µM.
Regarding `O=C(CCN1CCOCC1)OCC(C(=O)Nc1nnc(CCCCc2nnc(NC(=O)C(CO)c3ccccc3)s2)s1)c1ccccc1` (centres unmarked) [Compound 228, 3-((5-{4-[5-(3-hydroxy-2-phenylpropanamido)-1,3,4-thiadiazol-2-yl]butyl}-1,3,4-thiadiazol-2-yl)amino)-3-oxo-2-phenylpropyl 3-morpholinopropanoate], the IC50 was 0.57 µM.
In the case of `CN(C)CC(=O)Nc1nnc(CCCCc2nnc(NC(=O)Cc3ccccc3)s2)s1` [Compound 297], the IC50 turned out to be 6.4 µM.
On to `O=C(OCCCN1CCOCC1)OCN(C(=O)Cc1ccccc1)c1nnc(CCSCCc2nnc(N(COC(=O)OCCCN3CCOCC3)C(=O)Cc3ccccc3)s2)s1` [Compound 28], for which the IC50 was greater than 50 µM.
The figure for `CC(C(=O)Nc1nnc(CCSCCc2nnc(NC(=O)C(C)c3ccccc3)s2)s1)c1ccccc1` (centres unmarked) [Compound 19] is 11 µM; for `O=C(Cc1ccsc1)Nc1nnc(CCSCCc2nnc(NC(=O)Cc3ccsc3)s2)s1` [Compound 84] it is 0.23 µM; for `O=C(Cc1cccc(OCCN2CCOCC2)c1)Nc1nnc(CCSCc2nnc(NC(=O)Cc3cccc(OCCN4CCOCC4)c3)s2)s1` [Compound 267] it is 0.61 µM.
The figure for `N[C@@H](C(=O)Nc1nnc(CCSCCc2nnc(NC(=O)[C@H](N)c3ccccc3)s2)s1)c1ccccc1` [Compound 47] is 8.3 µM.
As for `CCN(C(=O)Cc1ccccc1)c1nnc(CCSCCc2nnc(N(CC)C(=O)Cc3ccccc3)s2)s1` [Compound 150], the IC50 was greater than 20 µM.
Under `O=C(Nc1nnc(CCSCCc2nnc(NC(=O)C3CCc4ccccc4C3)s2)s1)C1CCc2ccccc2C1` (centres unmarked) [Compound 37] stands greater than 50 µM.
